Results from patent publication US5288720A, “Angiotensin II receptor blocking 2,3,6 substituted quinazolinones” (American Cyanamid Company, priority 1993, dated 1994).
pIC50: −log10 of the molar value.

Target: T1, Angiotensin II Receptor (Bos taurus, UniProt P25104)
T1 construct: The brownish tissue forming the adrenal cortex is scraped off and finely minced with scissors before homogenization; from tissue; host or cells: beef adrenal cortex, microsomal membranes (100,000×g pellet); fresh glands from a local slaughter house (Maxwell-Cohen)
T1 sequence (P25104 1-359): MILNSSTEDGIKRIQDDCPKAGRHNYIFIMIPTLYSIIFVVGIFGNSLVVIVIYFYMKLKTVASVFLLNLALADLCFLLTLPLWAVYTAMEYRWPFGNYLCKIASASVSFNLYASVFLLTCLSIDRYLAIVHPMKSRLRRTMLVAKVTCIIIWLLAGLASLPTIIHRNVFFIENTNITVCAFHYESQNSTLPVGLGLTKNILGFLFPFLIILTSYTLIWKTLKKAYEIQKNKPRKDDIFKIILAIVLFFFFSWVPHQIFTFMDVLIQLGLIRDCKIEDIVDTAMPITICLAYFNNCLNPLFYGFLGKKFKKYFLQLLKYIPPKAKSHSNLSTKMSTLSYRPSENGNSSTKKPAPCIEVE
Test: Receptor Binding Assay: Binding of [^125 I](Sar^1,Ile^8)AngII to beef adrenal cortex membranes
Settings: 60 min, room temperature
Summary of the method: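 Competition binding of [125I](Sar1,Ile8)AngII (2200 Ci/mmole) to bovine adrenal cortex membranes (100,000×g pellet) in 50.0 mM Tris.HCl, pH 7.2, 0.1 mM PMSF. Compounds were added in DMSO and incubated 60 min at room temperature, in triplicate. Bound ligand was filtered onto PEI-presoaked filters and gamma-counted, with nonlinear analysis.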

Compound | pIC50
CCCCc1nc2ccc(C(O)C3CCCN(C)C3=O)cc2c(=O)n1Cc1ccc(-c2ccccc2-c2nn[nH]n2)cc1 (single isomer, unassigned; isomer 2) [Example 38, 2-Butyl-6-hydroxy(1-methyl-2-oxo-3-piperidinyl)methyl-3-[[2'-(1H-tetrazol-5-yl)[1,1'-biphenyl]-4-yl]methyl-4(3H)-quinazolinone isomer 2] | 7.17
CCCCc1nc2ccc(C(OC)C3CCCO3)cc2c(=O)n1Cc1ccc(-c2ccccc2-c2nn[nH]n2)cc1 (single isomer, unassigned) [Example 24] | 7.42
CCCCc1nc2ccc(C(OC)C3CCCN(C)C3=O)cc2c(=O)n1Cc1ccc(-c2ccccc2-c2nn[nH]n2)cc1 (single isomer, unassigned; isomer 2) [Example 43, 2-Butyl-6-[methoxy(1-methyl-2-oxo-3-piperidinyl)methyl]-3-[[2'-(1H-tetrazol-5-yl)[1,1'-biphenyl]-4-yl]methyl]-4(3H)-quinazoline isomer 2] | 7.15
CCCCc1nc2ccc(C(OC)C3CCCO3)cc2c(=O)n1Cc1ccc(-c2ccccc2-c2nn[nH]n2)cc1 (single isomer, unassigned; isomer 1) [Example 23, 2-Butyl-6-[methoxy(tetrahydro-2-furanyl)methyl-3-[[2'-(1H-tetrazol-5-yl)[1,1'-biphenyl]-4-yl]-methyl]-4(3e,uns/H/ )-quinazolinone isomer 1] | 7.17
CCCCc1nc2ccc(C(OC)C3CCCN(C)C3=O)cc2c(=O)n1Cc1ccc(-c2ccccc2-c2nn[nH]n2)cc1 (single isomer, unassigned; isomer 1) [Example 42, 2-Butyl-6-methoxy(1-methyl-2-oxo-3-piperidinyl)methyl]-3-[[2' -1H-tetrazol-5-yl)[1,1'-biphenyl]-4-yl]methyl-4(3H)-quinazolinone isomer 1] | 7.04
CCCCc1nc2ccc(C(O)C3CCN(C)C3=O)cc2c(=O)n1Cc1ccc(-c2ccccc2-c2nn[nH]n2)cc1 (single isomer, unassigned; isomer 1) [Example 32, 2-Butyl-6-[hydroxy(1-methyl-2-oxo-3-pyrrolidinyl)methyl]-3-[[2'-(1e,uns/H/ -tetrazol-5-yl)[1,1'-biphenyl]-4-yl]methyl]-4(3H)-quinazolinone isomer 1] | 7.39
CCCCc1nc2ccc(C(O)C3CCN(C)C3=O)cc2c(=O)n1Cc1ccc(-c2ccccc2-c2nn[nH]n2)cc1 (single isomer, unassigned; isomer 2) [Example 33, 2-Butyl-6-[hydroxy(1-methyl-2-oxo-3-pyrrolidinyl)methyl-3-[[2'-(1H-tetrazol-5-yl)[1,1'-biphenyl]-4-yl]methyl]-4(3H)-quinazolinone isomer 2] | 7.54
CCCCc1nc2ccc(C(O)C3CCCN(C)C3=O)cc2c(=O)n1Cc1ccc(-c2ccccc2-c2nn[nH]n2)cc1 (single isomer, unassigned; isomer 1) [Example 37, 2-Butyl-6-hydroxy(1-methyl-2-oxo-3-piperidinyl)methyl]-3-[[2'-(1H-tetrazol-5-yl)[1,1'-biphenyl]-4-yl]methyl]-4(3H)-quinazolinone isomer 1] | 7.39
